Measured values from patent US7189849B2, “Synthesis of acyclic nucleoside derivatives” (Medivir AB, priority 1997, dated 2007).

Assays:
[1] = Bioavailability testing in rats (24 h urinary H2G recovery); format: in vivo
Protocol: The bioavailability of compounds of the invention were compared to the parent compound H2G and other H2G derivatives in a rat model. Compounds of the invention and comparative compounds were administered, per oral (by catheter into the stomach), to multiples of three individually weighed animals to give 0.1 mmol/kg of the dissolved prodrug in an aqueous (Example 4, 5, Comparative example 1–3, 5, 8), peanut oil (Comparative examples 4, 9, 10) or propylene glycol (Example 1–3, 6–12, 17, Comparative example 6, 7) vehicle dependent on the solubility of the test compound ingredient. The animals were fasted from 5 hours before to approximately 17 hours after administration and were maintained in metabolic cages. Urine was collected for the 24 hours following administration and frozen until analysis. H2G was analysed in the urine using the HPLC/UV assay of Stahle & Oberg, Antimicrob Agents Chemother. 36 No 2, 339–342 (1992), modified as follows: samples upon thawing are diluted 1:100 in aq dist H2O and filtered through an amicon filter with centrifugation at 3000 rpm for 10 minutes. Duplicate 30 μl samples are chromatographed on an HPLC column; Zorbax SB-C18; 75×4.6 mm; 3.5 micron; Mobile phase 0.05M NH4PO4, 3–4% methanol, pH 3.3–3.5; 0.5 ml/min; 254 nm, retention time for H2G at MeOH 4% and pH 3.33, ˜12.5 min. Bioavailability is calculated as the measured H2G recovery from each animal averaged over at least three animals and expressed as a percentage of the averaged 24 hour urinary H2G recovery from a group of 4 individually weighed rats respectively injected i.v. jugularis with 0.1 mmol/kg H2G in a Ringer's buffer vehicle and analysed as above.
Comparative example 1 (H2G) was from the same batch as used for preparation of Examples 1 to 12. The preparation of Comparative example 2 (monoVal-H2G) and 3 (diVal-H2G) are shown in Examples 20 and 23. […] Comparative examples 5 & 8 (Val/Ac H2G) were prepared analogously to Example 4 using acetic anhydride with relevant monovaline H2G. Comparative example 6 (Ala/stearoyl H2G) was prepared analogously to Example 6 using N-t-Boc-L-alanine in step 4. Comparative example 7 (Gly/decanoyl) was prepared analogously to Example 5 but using the step a) intermediate made with N-t-Boc-L-glycine. The preparation of Comparative examples 9 and 10 is shown in Examples 24 and 25 respectively.

[2] = Plasma concentration assay in rats (H2G AUC oral vs i.v.); format: in vivo, male Sprague Dawley derived rats; conditions: Table 1B; plasma drug assay in rats, 10 mg/kg oral in propylene glycol, H2G AUC vs 10 mg/kg i.v. H2G
Protocol: A plasma concentration assay was done in male Sprague Dawley derived rats. The animals were fasted overnight prior to dosing but were permitted free access to water. Each of the compounds evaluated was prepared as a solution/suspension in propylene glycol at a concentration corresponding to 10 mg H2G/ml and shaken at room temperature for eight hours. Groups of rats (at least 4 rats in each group) received a 10 mg/kg (1 ml/kg) oral dose of each of the compounds; the dose was administered by gavage. At selected time points after dosing (0.25, 0.5, 1, 1.5, 2, 4, 6, 9, 12, 15, and 24 hours after dosing), heparinized blood samples (0.4 ml/sample) were obtained from a tail vein of each animal. The blood samples were immediately chilled in an ice bath. Within two hours of collection, the plasma was separated from the red cells by centrifugation and frozen till analysis. The components of interest were separated from the plasma proteins using acetonitrile precipitation. Following lyophilisation, and reconstitution, the plasma concentrations were determined by reverse phase HPLC with fluorescence detection. The oral uptake of H2G and other test compounds was determined by comparison of the H2G area under the curve derived from the oral dose compared to that obtained from a 10 mg/kg intravenous dose of H2G, administered to a separate group of rats. The results are depicted in Table 1B above.

[3] = test system: Herpes simplex virus-1 (HSV-1); experiment: Antiviral activity in HSV-1-infected mouse (survival); format: in vivo, mice; conditions: 21 and 83 mg/kg three times daily p.o. for 5 days, relative to an equivalent dose of acyclovir
Protocol: Herpes simplex virus-1 (HSV-1)-infected mouse serves as an animal model to determine the efficacy of antiviral agents in vivo. Mice inoculated intraperitoneally with HSV-1 at 1000 times the LD50 were administered either with a formulation comprising the currently marketed anti-herpes agent acyclovir (21 and 83 mg/kg in a 2% propylene glycol in sterile water vehicle, three times daily, p.o.) or the compound of Example 29 (21 and 83 mg/kg in a 2% propylene glycol in sterile water vehicle, three times daily, p.o.) for 5 consecutive days beginning 5 hours after inoculation. The animals were assessed daily for deaths. […] In the legend, the compound of the invention is denoted Ex.29 and acyclovir is denoted ACV.

[4] = Table 2, rats, 0.1 mmol/kg per oral, 24 hour urinary H2G recovery as percentage of that after 0.1 mmol/kg H2G i.v.

CCCCCCCCCCCCCCCCCC(=O)OCC[C@@H](CO)Cn1cnc2c(=O)[nH]c(N)nc21 [Comparative Example 10]
Bioavailability [1, 4]: 7%

Nc1nc2c(ncn2CC(CO)CCO)c(=O)[nH]1 (stereo not shown) [Comparative example 1, 9-[4-hydroxy-(2-hydroxymethyl)butyl]guanine, reference compound]
Bioavailability [2]: 3.8%
Bioavailability ([1]; Table 1A, urinary recovery assay of H2G from rats, oral, see Biological Example 1): 8%
Bioavailability [1, 4]: 8%

CCCCCCCCCCCCCCCCCC(=O)OC[C@H](CCOC(=O)[C@@H](N)[C@@H](C)CC)Cn1cnc2c(=O)[nH]c(N)nc21 [Example 7]
Bioavailability [1, 4]: 53%

CC(=O)CCCC(=O)OC[C@H](CCOC(=O)[C@@H](N)C(C)C)Cn1cnc2c(=O)[nH]c(N)nc21 [Example 10]
Bioavailability [1, 4]: 52%

CCCCCCCCCCCCCCCCCC(=O)OC[C@H](CCOC(=O)[C@@H](N)C(C)C)Cn1cnc2c(=O)[nH]c(N)nc21.Cl [Example 29, (R)-9-[(2-stearoyloxymethyl)-4-(L-valyloxy)butyl]guanine monohydrochloride]
percentage of mice surviving the HSV-1 infection (FIG. 2) [3]: significantly greater
